Reference: patent US8809583B2, “Methods for producing isomers of muconic acid and muconate salts” (Amyris, Inc., priority 2010, dated 2014)

Legend:
Format in all cases: physicochemical
[1] = Precipitation of cis,trans-muconate from clarified broth at different pH values
Source text: Following isomerization (e.g., as in Example 8), broth containing cis,trans-muconic acid was cooled to approximately ambient temperature and the cells, cell debris and precipitated solids were removed from the culture broth by centrifugation. Alternatively, such solids can be removed by filtration (e.g., through a 100 kD SARTOCON® Slice cassette). The cell-free broth was then clarified by filtration (e.g., through a 10 kD SARTOCON® Slice cassette), to remove proteins. […]

[2] = Solvent extraction of slurry of cis,trans-muconic acid in M9 salts (simulated broth) acidified to pH 3.0, precipitate left in; details: 63.34 g/L incl. precipitate
Experimental: (§1) To individual 50 mL conical centrifuge tubes each containing 15 mL of the filtered broth were added 15 mL of each solvent listed in tables below. Each tube was agitated for two minutes and the organic and aqueous phases allowed to separate. The aqueous layer was separated from the solvent layer by pipette and placed into a new 50 mL conical tube. Both the aqueous and solvent phases of each extraction were analyzed for muconic acid using HPLC. A second extraction was performed on each of the separated aqueous layers using fresh solvent. Again the samples were agitated, allowed to settle and the aqueous and organic phases were separated and analyzed.
To test the ability of solvent extraction to recover cis,trans-muconic acid after acidification to sufficiently low levels that significant amounts of the cis,trans-muconic acid has precipitated, a solution of cis,trans-muconic acid in a solution of M9 salts was used to simulate a fermentation broth. 15 grams of cis,trans-muconic acid were added to 250 mL of M9 salts giving an approximate titer of 60 g/L. This was achieved by raising the pH to 7.0 using sodium hydroxide. The broth was then acidified with sulfuric acid to pH 3.0 causing the cis,trans-muconic acid to precipitate. The solid precipitate was left in the acidified mixture, and the entire slurry was extracted twice with solvent as described above.

[3] = Solubility of muconic acid isomers in organic solvents
[4] = Solvent extraction of cis,trans-muconic acid from acidified, filtered fermentation broth (HPLC of both phases); details: pH about 3
Experimental: Fermentation broth was obtained that had been isomerized to cis,trans-muconic acid, and was acidified to a pH of about 3. The solid cis,trans-muconic acid was removed by filtration to leave acidified fermentation broth containing approximately 5 to 10 grams per Liter of cis,trans-muconic acid.
as §1
Different broth samples with different amounts of cis,trans-muconic acid were used to generate the results in each table.

[5] = broth 4.86 g/L, cyclohexanone, first line (extraction number not given)
[6] = broth 4.86 g/L, cyclohexanone, second line (extraction number not given)
[7] = broth 4.86 g/L, ethyl hexanol, first line (extraction number not given)
[8] = broth 4.86 g/L, ethyl hexanol, second line (extraction number not given)
[9] = broth 4.86 g/L, isoalcohol, first line (extraction number not given)
[10] = broth 4.86 g/L, isoalcohol, second line (extraction number not given)
[11] = broth 4.86 g/L, xylene, first line (extraction number not given)
[12] = broth 4.86 g/L, xylene, second line (extraction number not given)
[13] = broth 9.82 g/L, 1-butanol, extraction 1
[14] = broth 9.82 g/L, 1-butanol, extraction 2
[15] = broth 9.82 g/L, Octanol, extraction 1
[16] = broth 9.82 g/L, Octanol, extraction 2
[17] = broth 9.82 g/L, tBME, extraction 1
[18] = broth 9.82 g/L, tBME, extraction 2
[19] = broth 10.69 g/L, 1-pentanol, extraction 1
[20] = broth 10.69 g/L, 1-pentanol, extraction 2
[21] = broth 10.69 g/L, MEK, extraction 1
[22] = broth 10.69 g/L, MEK, extraction 2
[23] = broth 10.69 g/L, MeTHF, extraction 1
[24] = broth 10.69 g/L, MeTHF, extraction 2
[25] = broth 10.69 g/L, cyclohexane, extraction 1
[26] = broth 10.69 g/L, cyclohexane, extraction 2
[27] = broth 10.69 g/L, cylcohexanol, extraction 1
[28] = broth 10.69 g/L, cylcohexanol, extraction 2
[29] = broth 10.69 g/L, decalin, extraction 1
[30] = broth 10.69 g/L, decalin, extraction 2
[31] = broth 10.69 g/L, n-butyl acetate, extraction 1
[32] = broth 10.69 g/L, n-butyl acetate, extraction 2

O=C(O)/C=C\C=C\C(=O)O [cis,trans-muconic acid]
% ctMA in filtrate ([1]; pH 2.0): 18 weight % | % ctMA in filtrate ([1]; pH 2.5): 18 weight % | ctMA in precipitate ([1]; pH 2.5): 64 weight % | % ctMA in filtrate ([1]; pH 3.0): 22 weight % | ctMA in precipitate ([1]; pH 3.0): 61 weight % | cis,trans-muconic acid originally in the solution that precipitates ([1]; pH 3, Table 2): about 60% | cis,trans-muconic acid remaining in solution ([1]; pH 3, Table 2): approximately 40% | % ctMA in filtrate ([1]; pH 3.5): 26 weight % | ctMA in precipitate ([1]; pH 3.5): 58 weight % | % ctMA in filtrate ([1]; pH 4.0): 75 weight % | ctMA in precipitate ([1]; pH 4.0): 22 weight % | % ctMA in filtrate ([1]; pH 4.7): 100 weight % | ctMA in precipitate ([1]; pH 4.7): 0 weight % | Muconic acid in aqueous phase ([2]; MeTHF, extraction 1): 2.03 g/L | Muconic acid in organic phase ([2]; MeTHF, extraction 1): 47.10 g/L | Partition coefficient ([2]; MeTHF, extraction 1): 23.20 | Muconic acid in aqueous phase ([2]; MeTHF, extraction 2): 0.11 g/L | Muconic acid in organic phase ([2]; MeTHF, extraction 2): 1.64 g/L | Partition coefficient ([2]; MeTHF, extraction 2): 14.91 | Muconic acid in aqueous phase ([2]; cyclohexanol, extraction 1): 10.53 g/L | Muconic acid in organic phase ([2]; cyclohexanol, extraction 1): 51.37 g/L | Partition coefficient ([2]; cyclohexanol, extraction 1): 4.88 | Muconic acid in aqueous phase ([2]; cyclohexanol, extraction 2): 2.71 g/L | Muconic acid in organic phase ([2]; cyclohexanol, extraction 2): 3.75 g/L | Partition coefficient ([2]; cyclohexanol, extraction 2): 1.38 | Muconic acid in aqueous phase ([2]; cyclohexanone, extraction 1): 2.92 g/L | Muconic acid in organic phase ([2]; cyclohexanone, extraction 1): 51.05 g/L | Partition coefficient ([2]; cyclohexanone, extraction 1): 17.48 | Muconic acid in aqueous phase ([2]; cylcohexanone, extraction 2): 0.20 g/L | Muconic acid in organic phase ([2]; cylcohexanone, extraction 2): 2.10 g/L | Partition coefficient ([2]; cylcohexanone, extraction 2): 10.50 | Muconic acid in aqueous phase ([2]; tBME, extraction 1): 54.00 g/L | Muconic acid in organic phase ([2]; tBME, extraction 1): 0.00 g/L | Partition coefficient ([2]; tBME, extraction 1): 0.00 | Muconic acid in aqueous phase ([2]; tBME, extraction 2): 59.88 g/L | Muconic acid in organic phase ([2]; tBME, extraction 2): 0.00 g/L | Partition coefficient ([2]; tBME, extraction 2): 0.00 | solubility in organic solvents compared with the other isomers [3]: more soluble in organic solvents than either of the cis,cis or trans,trans isomers | Muconic acid in aqueous phase [4, 5]: 0.21 g/L | Muconic acid in organic phase [4, 5]: 6.11 g/L | Partition coefficient [4, 5]: 29.10 | Muconic acid in aqueous phase [4, 6]: 0.23 g/L | Muconic acid in organic phase [4, 6]: 0.00 g/L | Partition coefficient [4, 6]: large | Muconic acid in aqueous phase [4, 7]: 0.89 g/L | Muconic acid in organic phase [4, 7]: 3.83 g/L | Partition coefficient [4, 7]: 4.30 | Muconic acid in aqueous phase [4, 8]: 0.20 g/L | Muconic acid in organic phase [4, 8]: 0.79 g/L | Partition coefficient [4, 8]: 3.95 | Muconic acid in aqueous phase [4, 9]: 0.63 g/L | Muconic acid in organic phase [4, 9]: 4.87 g/L | Partition coefficient [4, 9]: 7.73 | Muconic acid in aqueous phase [4, 10]: 0.04 g/L | Muconic acid in organic phase [4, 10]: 0.49 g/L | Partition coefficient [4, 10]: 12.25 | Muconic acid in aqueous phase [4, 11]: 5.15 g/L | Muconic acid in organic phase [4, 11]: 0.00 g/L | Partition coefficient [4, 11]: 0.00 | Muconic acid in aqueous phase [4, 12]: 4.82 g/L | Muconic acid in organic phase [4, 12]: 0.00 g/L | Partition coefficient [4, 12]: 0.00 | Muconic acid in aqueous phase [4, 13]: 1.10 g/L | Muconic acid in organic phase [4, 13]: 6.26 g/L | Partition coefficient [4, 13]: 5.69 | Muconic acid in aqueous phase [4, 14]: 0.27 g/L | Muconic acid in organic phase [4, 14]: 0.51 g/L | Partition coefficient [4, 14]: 1.89 | Muconic acid in aqueous phase [4, 15]: 2.19 g/L | Muconic acid in organic phase [4, 15]: 5.40 g/L | Partition coefficient [4, 15]: 2.47 | Muconic acid in aqueous phase [4, 16]: 1.52 g/L | Muconic acid in organic phase [4, 16]: 0.53 g/L | Partition coefficient [4, 16]: 0.35 | Muconic acid in aqueous phase [4, 17]: 2.05 g/L | Muconic acid in organic phase [4, 17]: 6.53 g/L | Partition coefficient [4, 17]: 3.19 | Muconic acid in aqueous phase [4, 18]: 0.72 g/L | Muconic acid in organic phase [4, 18]: 1.23 g/L | Partition coefficient [4, 18]: 1.71 | Muconic acid in aqueous phase [4, 19]: 1.29 g/L | Muconic acid in organic phase [4, 19]: 8.29 g/L | Partition coefficient [4, 19]: 6.43 | Muconic acid in aqueous phase [4, 20]: 0.30 g/L | Muconic acid in organic phase [4, 20]: 1.06 g/L | Partition coefficient [4, 20]: 3.53 | Muconic acid in aqueous phase [4, 21]: 2.63 g/L | Muconic acid in organic phase [4, 21]: 9.65 g/L | Partition coefficient [4, 21]: 3.67 | Muconic acid in aqueous phase [4, 22]: 0.84 g/L | Muconic acid in organic phase [4, 22]: 1.99 g/L | Partition coefficient [4, 22]: 2.37 | Muconic acid in aqueous phase [4, 23]: 0.65 g/L | Muconic acid in organic phase [4, 23]: 7.40 g/L | Partition coefficient [4, 23]: 11.38 | Muconic acid in aqueous phase [4, 24]: 0.00 g/L | Muconic acid in organic phase [4, 24]: 0.51 g/L | Partition coefficient [4, 24]: large | Muconic acid in aqueous phase [4, 25]: 10.47 g/L | Muconic acid in organic phase [4, 25]: 0.00 g/L | Partition coefficient [4, 25]: 0.00 | Muconic acid in aqueous phase [4, 26]: 10.20 g/L | Muconic acid in organic phase [4, 26]: 0.00 g/L | Partition coefficient [4, 26]: 0.00 | Muconic acid in aqueous phase [4, 27]: 0.98 g/L | Muconic acid in organic phase [4, 27]: 8.62 g/L | Partition coefficient [4, 27]: 8.80 | Muconic acid in aqueous phase [4, 28]: 0.28 g/L | Muconic acid in organic phase [4, 28]: 1.05 g/L | Partition coefficient [4, 28]: 3.75 | Muconic acid in aqueous phase [4, 29]: 10.25 g/L | Muconic acid in organic phase [4, 29]: 0.00 g/L | Partition coefficient [4, 29]: 0.00 | Muconic acid in aqueous phase [4, 30]: 12.99 g/L | Muconic acid in organic phase [4, 30]: 0.00 g/L | Partition coefficient [4, 30]: 0.00 | Muconic acid in aqueous phase [4, 31]: 3.96 g/L | Muconic acid in organic phase [4, 31]: 6.78 g/L | Partition coefficient [4, 31]: 1.71 | Muconic acid in aqueous phase [4, 32]: 2.02 g/L | Muconic acid in organic phase [4, 32]: 3.55 g/L | Partition coefficient [4, 32]: 1.76
